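Each compound was tested at five concentrations against cells in 96-well plates for 48 hours. The concentration for full growth arrest is given as TGI.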
What was measured:
Assay in all cases: growth of human tumour cells (NCI), 48 h
CAKI-1 renal = system: CAKI-1 renal
ACHN renal = system: ACHN renal
MALME-3M melanoma = system: MALME-3M melanoma
HT29 colon = system: HT29 colon
K-562 leukemia = system: K-562 leukemia
M14 melanoma = system: M14 melanoma
DU-145 prostate = system: DU-145 prostate
SK-MEL-5 melanoma = system: SK-MEL-5 melanoma
CCRF-CEM leukemia = system: CCRF-CEM leukemia
SK-MEL-2 melanoma = system: SK-MEL-2 melanoma
OVCAR-3 ovarian = system: OVCAR-3 ovarian
786-0 renal = system: 786-0 renal
HOP-92 NSCLC = system: HOP-92 NSCLC
NCI-H460 lung = system: NCI-H460 lung
HOP-62 NSCLC = system: HOP-62 NSCLC
NCI-H522 lung = system: NCI-H522 lung
HCC-2998 colon = system: HCC-2998 colon

Row | Compound | TGI (CAKI-1 renal) | TGI (ACHN renal) | TGI (MALME-3M melanoma) | TGI (HT29 colon) | TGI (K-562 leukemia) | TGI (M14 melanoma) | TGI (DU-145 prostate) | TGI (SK-MEL-5 melanoma) | TGI (CCRF-CEM leukemia) | TGI (SK-MEL-2 melanoma) | TGI (OVCAR-3 ovarian) | TGI (786-0 renal) | TGI (HOP-92 NSCLC) | TGI (NCI-H460 lung) | TGI (HOP-62 NSCLC) | TGI (NCI-H522 lung) | TGI (HCC-2998 colon)
1 | N#CC(C#N)=Cc1ccc2c(c1)OC(Cl)O2 (configuration not stated) | > 100 µM | 36 µM | 34.8 µM | 44.9 µM | > 100 µM | 55.7 µM | 63 µM | 35.1 µM | > 100 µM | 37.6 µM | 52.8 µM | 35.2 µM |  |  |  |  | 
2 | COc1ccc(-c2c(N)n(-c3nc4ccccc4s3)c(=O)c3cc([N+](=O)[O-])ccc23)cc1 | 48.5 µM | 69.9 µM | 93.7 µM | > 100 µM | > 100 µM | 47.6 µM |  |  | > 100 µM | > 100 µM | 35.4 µM | 16.2 µM | > 100 µM | 32.5 µM | 27 µM | 23.5 µM | 
3 | CNC(=O)N1CN(c2ccccc2)C2(CCN(CCCC(=O)c3ccc(F)cc3)CC2)C1=O | > 100 µM | 75.5 µM | 35.3 µM | 26.9 µM | 49 µM | 40.8 µM | > 100 µM | 26.7 µM | 70.8 µM |  | 41.6 µM | 87.1 µM |  |  | 22.8 µM | 56.6 µM | 22.2 µM
4 | CN(C)c1ccc(N=Nc2ccc3nc[nH]c3c2)cc1 | > 100 µM | 37.6 µM | 53 µM | 37 µM | 75.2 µM | 46.8 µM | 77.3 µM | > 100 µM | > 100 µM | > 100 µM |  | 36.1 µM |  | 37.4 µM |  | 51.1 µM | 
5 | O=C1OC(CCCl)(c2ccccc2)CC1CN1CCOCC1 (configuration not stated) | 24.6 µM | > 100 µM | 33.5 µM | 46 µM | 61.3 µM | 57.1 µM |  | 41.7 µM | 41.6 µM | 57.5 µM | 32.1 µM | 24.4 µM | 31.6 µM | > 100 µM | > 100 µM | 33.5 µM | > 100 µM
6 | COc1ccc(NS(=O)CCCc2ccccc2)cc1 (configuration not stated) |  | > 100 µM | > 100 µM | > 100 µM | > 100 µM |  | > 100 µM | > 100 µM | > 100 µM | > 100 µM | > 100 µM | > 100 µM |  | > 100 µM | > 100 µM | > 100 µM | 
7 | Cc1c(/C=N/NC(=S)Nc2ccccc2Cl)c(=O)n(-c2ccccc2)n1C | 81.3 µM |  | 79.9 µM | > 100 µM | > 100 µM | > 100 µM | > 100 µM | > 100 µM | > 100 µM | > 100 µM | > 100 µM | 50 µM |  | > 100 µM | 78.2 µM | 60.9 µM | 
8 | C=CCc1cc(OC)c2c(c1)C(O)CC(c1ccccc1)O2 (configuration not stated) | > 100 µM | > 100 µM | > 100 µM | > 100 µM | > 100 µM | > 100 µM |  | > 100 µM | > 100 µM | > 100 µM | > 100 µM | > 100 µM | > 100 µM | > 100 µM | > 100 µM | > 100 µM | > 100 µM

— PubChem BioAssay (NCI)
